Literature values, collected in patent publication US9226893B2, “Method for storing silica-based material, package produced with the method and use of package for packaging of silica-based products” (DelSiTech Oy, priority 2006, dated 2016).

lysozyme: Lysozyme released from sol-gel derived silica gel (literature, Wilson et al.)
activity of released lysozyme (gel let to dry and age simultaneously, within few weeks): substantially reduced
amount of biologically active lysozyme relative to total amount of released lysozyme (silica gel which had not dried, with or without protective agent): ~100%
